Among the test systems are 786-0 renal; A498 renal; A549 NSCLC; IGROV1 ovarian; NCI-H460 lung; OVCAR-3 ovarian; OVCAR-4 ovarian; RPMI-8226 leukemia; SNB-19 CNS; MDA-MB-435.
Assay in all cases: NCI-60 cell line screen, 48 h

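Grown in 96-well plates, cells were treated for 48 hours with each compound at five concentrations. Insufficient inhibition: endpoint recorded as highest concentration tested. The concentration for 50% growth inhibition is given as GI50. TGI: concentration producing complete growth inhibition.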

As for `COc1ccc2c3c([nH]c2c1[N+](=O)[O-])C(C)N(Cc1ccccc1)CC3` (configuration not stated), the TGI with 786-0 renal is above 100 µM; in the test with A498 renal it was 7.71 µM; in the test on A549 NSCLC, above 100 µM; with IGROV1 ovarian it was 30.9 µM; in the test with NCI-H460 lung, 14.1 µM; with OVCAR-3 ovarian it was 49 µM. The TGI with OVCAR-4 ovarian was above 100 µM; in the test with RPMI-8226 leukemia, 7.56 µM; with SNB-19 CNS, above 100 µM.

For the molecule `COc1ccc2c(c1)[nH]c(=O)c1c3cccc(F)c3cn21`, the GI50 is 0.0665 µM with 786-0 renal; 0.0625 µM in the test on A498 renal; 0.0667 µM in the test on A549 NSCLC; 0.0397 µM in the test with IGROV1 ovarian; 0.0442 µM with NCI-H460 lung; 0.0295 µM in the test on OVCAR-3 ovarian. The results for the GI50 in the test with OVCAR-4 ovarian, in the test with RPMI-8226 leukemia and with SNB-19 CNS were 0.126 µM, 0.0295 µM and 0.218 µM, respectively. For the same molecule, the TGI in the test with 786-0 renal was above 86.1 µM; with A498 renal, above 100 µM; in the test with A549 NSCLC it was above 100 µM; in the test with NCI-H460 lung, 11.7 µM; in the test with OVCAR-3 ovarian, 0.0774 µM; in the test with OVCAR-4 ovarian, 28.8 µM. For the same molecule, the figures for the TGI in the test on RPMI-8226 leukemia and in the test on SNB-19 CNS were 0.27 µM and above 69.6 µM, respectively.

On to `CC1=C(c2ccccc2)C(O)(c2ccccc2)C(C)C1=O` (configuration not stated), for which the GI50 with 786-0 renal is 18.9 µM; in the test with A549 NSCLC it was 32.5 µM; with IGROV1 ovarian it was 10.3 µM; with MDA-MB-435 it was 2.13 µM; with NCI-H460 lung, 25.1 µM; with OVCAR-3 ovarian it was 16.5 µM. Also, the GI50 in the test with OVCAR-4 ovarian is 24.3 µM; with SNB-19 CNS, 35.5 µM. Besides, the TGI with 786-0 renal was above 100 µM; in the test on A549 NSCLC, above 100 µM; with IGROV1 ovarian, above 100 µM; in the test on MDA-MB-435, 5.47 µM; with NCI-H460 lung, above 100 µM; in the test on OVCAR-3 ovarian, above 100 µM. Also, the TGI with OVCAR-4 ovarian and with SNB-19 CNS was above 100 µM in each case.

In the case of `COc1ccc2c(c1OC)CO[C@@H]2[C@H]1c2c(cc3c(c2OC)OCO3)CCN1S(=O)(=O)c1cn(C)cn1`, the GI50 in the test on 786-0 renal is 0.968 µM; in the test with A498 renal, 0.588 µM; with A549 NSCLC it was 1.99 µM; with IGROV1 ovarian, 1.45 µM; with NCI-H460 lung it was 2.87 µM; in the test with OVCAR-3 ovarian, 1.59 µM. For the same molecule, the GI50 is 6.65 µM with OVCAR-4 ovarian, 2.48 µM with RPMI-8226 leukemia and 1.76 µM in the test on SNB-19 CNS. The TGI in the test with 786-0 renal was above 100 µM; in the test on A498 renal, 9.75 µM; in the test with A549 NSCLC it was above 100 µM; with IGROV1 ovarian, above 100 µM; with NCI-H460 lung, 26.8 µM; in the test with OVCAR-3 ovarian it was 4.83 µM. Moreover, the values for the TGI with OVCAR-4 ovarian, with RPMI-8226 leukemia and in the test on SNB-19 CNS were above 100 µM, 30.2 µM and above 100 µM, respectively.

Regarding `COc1cc(/C=C/C(=O)/C=C/c2ccc(-n3ccnc3C)cc2)ccc1O`, the GI50 in the test on 786-0 renal is 2.11 µM; with A498 renal, 10.4 µM; in the test with A549 NSCLC it was 3.22 µM; with IGROV1 ovarian it was 2.04 µM; with NCI-H460 lung it was 15.4 µM; with OVCAR-3 ovarian, 2.85 µM. Further, the GI50 with OVCAR-4 ovarian is 8.87 µM; in the test on RPMI-8226 leukemia it was 1.84 µM; with SNB-19 CNS, 4.62 µM. The TGI in the test with 786-0 renal is 5.21 µM; in the test with A498 renal, 23.7 µM; in the test on A549 NSCLC, above 100 µM; in the test on IGROV1 ovarian it was 5.12 µM; in the test with NCI-H460 lung, 43.4 µM; with OVCAR-3 ovarian, 8.41 µM. The TGI with OVCAR-4 ovarian was above 100 µM; in the test with RPMI-8226 leukemia, 6.1 µM; in the test on SNB-19 CNS, 86.3 µM.

With `ClC/C=C/COC1CCCCO1` (configuration not stated), the TGI in the test with 786-0 renal, in the test with A498 renal, in the test with A549 NSCLC, in the test with IGROV1 ovarian, with NCI-H460 lung and in the test with OVCAR-3 ovarian was above 100 µM in each case. Moreover, the TGI with OVCAR-4 ovarian, in the test with RPMI-8226 leukemia and in the test with SNB-19 CNS was above 100 µM throughout.

On to `CC1=C(/C=C/C(C)=C/C2CC(N(C)C)=CC(=O)O2)C(C)(C)CCC1` (configuration not stated), for which the TGI with 786-0 renal came out at 29.2 µM; with A498 renal, 29.2 µM; in the test with A549 NSCLC, 22.3 µM; in the test with IGROV1 ovarian it was 29 µM; in the test on NCI-H460 lung it was 42.4 µM; in the test on OVCAR-3 ovarian it was 23.7 µM. The TGI in the test with OVCAR-4 ovarian is 31.7 µM; in the test on RPMI-8226 leukemia, 19.3 µM; with SNB-19 CNS, 28.6 µM.

With `O=C1N2Cc3c4ccc5c3CN3C(=O)N6Cc7c(ccc(c7CN1C6(c1ccccc1)C23c1ccccc1)OCCOCCNCCOCCO4)OCCOCCNCCOCCO5` (configuration not stated), the TGI was 97.4 µM in the test with 786-0 renal; above 100 µM with A498 renal; above 100 µM with A549 NSCLC; above 100 µM in the test with IGROV1 ovarian; above 100 µM in the test with NCI-H460 lung; above 100 µM in the test on OVCAR-3 ovarian. In addition, the results for the TGI with OVCAR-4 ovarian, in the test on RPMI-8226 leukemia and in the test with SNB-19 CNS were above 100 µM, 92.2 µM and above 100 µM, respectively.

In the case of `COC(=O)C1Cc2c(n(C)c3ccccc23)C(CCC(=O)O)N1Cc1ccccc1` (configuration not stated), the TGI in the test with 786-0 renal is above 100 µM; in the test on A498 renal, 76.5 µM; in the test on A549 NSCLC, above 100 µM; with IGROV1 ovarian it was above 100 µM; in the test on NCI-H460 lung, 80.7 µM; with OVCAR-3 ovarian, 53.4 µM. For the same molecule, the TGI was above 100 µM in the test with OVCAR-4 ovarian, 75.2 µM in the test on RPMI-8226 leukemia and 97.3 µM in the test with SNB-19 CNS.

As to `c1ccc2c3c([nH]c2c1)[C@H]1C2CCCCN2CN1CC3` (some centres not stated), the TGI with 786-0 renal, in the test with A498 renal, with A549 NSCLC, with IGROV1 ovarian, in the test with NCI-H460 lung and in the test with OVCAR-3 ovarian was above 100 µM each time. Moreover, the TGI in the test on OVCAR-4 ovarian, in the test on RPMI-8226 leukemia and in the test with SNB-19 CNS was above 100 µM in each case.

On to `O=c1[nH]c2ccccc2nc1/C=C(\O)c1ccccc1O`, for which the TGI in the test with 786-0 renal, with A498 renal, in the test with A549 NSCLC, with IGROV1 ovarian, in the test with NCI-H460 lung and in the test on OVCAR-3 ovarian was above 100 µM throughout. For the same molecule, the TGI in the test on OVCAR-4 ovarian, with RPMI-8226 leukemia and with SNB-19 CNS was above 100 µM each time.

Source of the values: PubChem BioAssay (NCI).
